Source: patent publication US4647562A, “Anti-spasmodic agents having three branch chains” (United Pharmaceuticals, Inc., priority 1985, dated 1987)
Counter-ions that a name gives are not always drawn. Like-named read-outs stand apart in the source and are kept apart here.

Legend:
[1] = tested on: rabbit urinary bladder strip; experiment: Relaxation of bethanechol-contracted rabbit urinary bladder strip preparation; conditions: for inhibition at 100 µM / inhibition at 10 µM / inhibition at 1 µM / inhibition at 0.1 µM / inhibition at 0.01 µM: Oryctolagus cuniculus
Experimental: The pharmacological actions of three anti-spasmodic compounds were studied in a rabbit urinary bladder strip preparation. In general, longitudinal strips were prepared from the base of freshly isolated rabbit bladders and were then suspended under near-physiological conditions in tissue baths. The strips were attached to force transducers and both contractile and relaxant activity was measured. To measure the relaxant effects on the anti-spasmodic compounds on previously-contracted bladder strips, the strips were initially exposed to the muscarinic receptor agonist bethanechol and allowed to reach a steady level of contractile activity for 20 minutes. At this point cumulative dose-responses to the various compounds were recorded. The rabbit abdomens were opened through a vertical midline incision. […] Tissues were allowed to equilibrate to a tension of 2 gm for sixty minutes during which time buffer was replaced at 20 minute intervals. […] Bethanechol was employed as the representative cholinergic agonist and, following equilibration, was added to the baths for a final concentration of 250 μM. The tissues were allowed 20 minutes to achieve a maintained level of contraction in response to bethanechol and, at this point, cumulative dose-response measurements for three anti-spasmodic compounds were started at concentrations ranging from 10^-8 M to 10^-4 M. Solutions were added in volumes up to 100 μl and were prepared fresh each day by dissolving them in distilled:deionzed water. […]

[2] = tested on: muscarinic receptors; type: binding, rabbit (New Zealand White); conditions: 1.0 × 10^-5 M compound; 0.1 nM [^3 H]QNB; 37° C., 60 minutes; pH 7.4
[3] = tested on: smooth muscle; conditions: prior knowledge on thiphenamil hydrochloride; cited from earlier work
[4] = 10^-4 moles/liter, bethanechol 250 μM
[5] = 10^-5 moles/liter, bethanechol 250 μM
[6] = 10^-6 moles/liter, bethanechol 250 μM
[7] = 10^-7 moles/liter, bethanechol 250 μM
[8] = 10^-8 moles/liter, bethanechol 250 μM
[9] = pH 7.4, read-out: % of maximum relaxation
[10] = read-out: % background relaxation

CCN(CC)CCSC(=O)CC(C)(C)C [t-butyl-acetyl-thio-S-(2-diethylaminoethyl)-ester.HCl]
Decrease in force of contraction of rabbit bladder strip [1, 4]: 1.08 gm
Increase in length of rabbit bladder strip [1, 4]: 3.9 cm
Decrease in force of contraction of rabbit bladder strip [1, 5]: 0.22 gm
Increase in length of rabbit bladder strip [1, 5]: 0.6 cm
Decrease in force of contraction of rabbit bladder strip [1, 6]: 0.03 gm
Increase in length of rabbit bladder strip [1, 6]: 0.1 cm
Decrease in force of contraction of rabbit bladder strip [1, 7]: 0.00 gm
Increase in length of rabbit bladder strip [1, 7]: 0.0 cm
Decrease in force of contraction of rabbit bladder strip [1, 8]: 0.03 gm
Increase in length of rabbit bladder strip [1, 8]: 0.1 cm
inhibition at 100 µM ([1]; pH 7.4, 10^-4 moles/liter, bethanechol 250 μM, maximal = pre-bethanechol baseline, read-out: % of maximum relaxation): 98%
inhibition at 10 µM ([1]; pH 7.4, 10^-5 moles/liter, bethanechol 250 μM, maximal = pre-bethanechol baseline, read-out: % of maximum relaxation): 15%
inhibition at 1 µM ([1]; pH 7.4, 10^-6 moles/liter, bethanechol 250 μM, maximal = pre-bethanechol baseline, read-out: % of maximum relaxation): 2.5%
inhibition at 0.1 µM ([1]; pH 7.4, 10^-7 moles/liter, bethanechol 250 μM, maximal = pre-bethanechol baseline, read-out: % of maximum relaxation): 0%
inhibition at 0.01 µM ([1]; pH 7.4, 10^-8 moles/liter, bethanechol 250 μM, maximal = pre-bethanechol baseline, read-out: % of maximum relaxation): 2.5%
inhibition at 100 µM ([1]; 10^-4 moles/liter, bethanechol 250 μM, read-out: % background relaxation): 80%
inhibition at 10 µM ([1]; 10^-5 moles/liter, bethanechol 250 μM, read-out: % background relaxation): 1.3%
inhibition at 1 µM ([1]; 10^-6 moles/liter, bethanechol 250 μM, read-out: % background relaxation): 0%
inhibition at 0.1 µM ([1]; 10^-7 moles/liter, bethanechol 250 μM, read-out: % background relaxation): 0%
inhibition at 0.01 µM ([1]; 10^-8 moles/liter, bethanechol 250 μM, read-out: % background relaxation): 0%
% inhibition of ^3 H[QNB] binding [2]: 76%

CCN(CC)CCSC(=O)C(c1ccccc1)c1ccccc1 [Thiphenamil hydrochloride]
atropinic side effects [3]: without producing characteristic atropinic side effects on salivary and sweat glands, GI glands, the eye or the cardiovascular system
decrease spasm [3]: decrease spasm of the gastrointestinal tract, biliary tract, ureter and uterus

CCN(CC)CCSC(=O)C(C)(C)C [trimethylacetyl-thio-S-(2-diethylaminoethyl)-ester.HCl]
Decrease in force of contraction of rabbit bladder strip [1, 4]: 0.82 gm
Increase in length of rabbit bladder strip [1, 4]: 4.1 cm
Decrease in force of contraction of rabbit bladder strip [1, 5]: 0.40 gm
Increase in length of rabbit bladder strip [1, 5]: 2.0 cm
Decrease in force of contraction of rabbit bladder strip [1, 6]: 0.38 gm
Increase in length of rabbit bladder strip [1, 6]: 1.9 cm
Decrease in force of contraction of rabbit bladder strip [1, 7]: 0.38 gm
Increase in length of rabbit bladder strip [1, 7]: 1.9 cm
Decrease in force of contraction of rabbit bladder strip [1, 8]: 0.00 gm
Increase in length of rabbit bladder strip [1, 8]: 0.0 cm
inhibition at 0.01 µM [1, 9]: 0%
inhibition at 0.1 µM [1, 9]: 16.5%
inhibition at 1 µM [1, 9]: 16.5%
inhibition at 10 µM [1, 9]: 16.5%
inhibition at 100 µM [1, 9]: 35.7%
inhibition at 0.01 µM [1, 10]: 0%
inhibition at 0.1 µM [1, 10]: 14.1%
inhibition at 1 µM [1, 10]: 14.1%
inhibition at 10 µM [1, 10]: 14.1%
inhibition at 100 µM [1, 10]: 29.7%
% inhibition of ^3 H[QNB] binding [2]: 66%
